From US20260276625A1, “SCREENING METHOD FOR COMPOUND INDUCING AUTOPHAGY” (TOHOKU UNIVERSITY, priority 2023, published 2026)

What was measured:
Type in all cases: cell-based
GFP-αSyn-FKBP^F36V = biological target: T1, GFP-αSyn-FKBP^F36V (Homo sapiens, UniProt P62942, F37V); experiment: Mutant FKBP-tagged synuclein degradation test (GFP fluorescence microscopy, HeLa cells); conditions: 48 hours, compared with untreated group (DMSO)
T1 construct: expressed in transfected cells; host or cells: HeLa
Procedure: HeLa cells transiently expressing GFP-α-synuclein tagged with a mutant FKBP (GFP-αSyn-FKBP^F36V) were treated with SLF′-AUTAC for 48 hours. In each of the wells of non-treated cells and treated cells, GFP fluorescence was photographed with a fluorescence microscope. Degradation of GFP-αSyn-FKBP^F36V was evaluated from the GFP fluorescence intensity.

DDX5 and p62 = biological target: T2, DDX5 and p62 (Homo sapiens, UniProt P17844); experiment: Droplet formation of DDX5 and p62, immunostaining of HeLa cells expressing GFP-FKBP^F36V; conditions: 1 μM, 12 hours, fixed cells, anti-DDX5 and anti-p62 antibody
T2 construct: endogenous in cells; host or cells: HeLa (transiently expressing GFP-FKBP^F36V)
Source text: Such a “droplet” can be confirmed by labeling a DEAD-box RNA helicase and/or p62 with a fluorescent label or the like, introducing a test compound into a system in which they exist, preferably treating cells expressing at least one of these with the test compound, and observing the presence of a substance visualized by the label with a fluorescence microscope or the like. In addition, for the purpose of confirming the properties of the liquid in more detail, it is preferable to combine this method with the fluorescence recovery after photobleaching (FRAP).
HeLa cells transiently expressing GFP tagged with a mutant FKBP (GFP-FKBP^F36V) were treated with 1 μM SLF′-AUTAC for 12 hours. The treated cells were fixed with 4% paraformaldehyde, then permeabilized with 0.1% TritonX-100/PBS, blocked with 1% BSA/PBS, immersed in PBS containing 1% rabbit-derived anti-DDX5 antibody and 1% mouse-derived anti-p62 antibody, and incubated at 4° C. overnight. Subsequently, the cells were immersed in PBS containing 1% AlexaFluor555-labeled anti-rabbit IgG and 1% AlexaFluor555-labeled anti-mouse IgG, and incubated at rccm temperature for 1 hour.

RFP-DDX5 = biological target: T3, RFP-DDX5 (Homo sapiens, UniProt P17844+P62942); experiment: Droplet formation, live cell imaging of HeLa cells expressing GFP-FKBP12 and RFP-DDX5, 1,6-hexanediol; conditions: 10 μM, 13 hours; disappeared after addition of 5% 1,6-hexanediol
T3 construct: expressed in transfected cells; host or cells: HeLa
Procedure: (§1) HeLa cells transiently expressing GFP-FKBP12 and RFP-DDX5, or GFP-FKBP12 and RFP-p62 were treated with AUTAC2-2G added in such an amount as to achieve a concentration of 10 μM for 13 hours. The treated cells were subjected to live cell imaging by a fluorescence microscope, and fluorescence derived from GFP and RFP was continuously observed. On the way, 5% 1,6-hexanediol was added 5 minutes after the start of observation to observe whether a dot-like structure in the field of view disappeared.
(§2) 1,6-Hexanediol is known to have an action of eliminating droplets, and this makes it possible to confirm whether the dot-like structure in the field of view of the microscope is a droplet.

RFP-p62 = biological target: T4, RFP-p62 (Homo sapiens, UniProt P62942+Q13501); experiment: Droplet formation, live cell imaging of HeLa cells expressing GFP-FKBP12 and RFP-p62, 1,6-hexanediol; conditions: 10 μM, 13 hours; disappeared after addition of 5% 1,6-hexanediol
T4 construct: expressed in transfected cells; host or cells: HeLa
Procedure: as §1, §2

T1 sequence (P62942 whole entry F37V): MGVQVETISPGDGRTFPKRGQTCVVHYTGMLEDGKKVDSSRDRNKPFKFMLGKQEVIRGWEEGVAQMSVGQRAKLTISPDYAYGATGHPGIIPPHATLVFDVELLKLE
T2 sequence (P17844 whole entry): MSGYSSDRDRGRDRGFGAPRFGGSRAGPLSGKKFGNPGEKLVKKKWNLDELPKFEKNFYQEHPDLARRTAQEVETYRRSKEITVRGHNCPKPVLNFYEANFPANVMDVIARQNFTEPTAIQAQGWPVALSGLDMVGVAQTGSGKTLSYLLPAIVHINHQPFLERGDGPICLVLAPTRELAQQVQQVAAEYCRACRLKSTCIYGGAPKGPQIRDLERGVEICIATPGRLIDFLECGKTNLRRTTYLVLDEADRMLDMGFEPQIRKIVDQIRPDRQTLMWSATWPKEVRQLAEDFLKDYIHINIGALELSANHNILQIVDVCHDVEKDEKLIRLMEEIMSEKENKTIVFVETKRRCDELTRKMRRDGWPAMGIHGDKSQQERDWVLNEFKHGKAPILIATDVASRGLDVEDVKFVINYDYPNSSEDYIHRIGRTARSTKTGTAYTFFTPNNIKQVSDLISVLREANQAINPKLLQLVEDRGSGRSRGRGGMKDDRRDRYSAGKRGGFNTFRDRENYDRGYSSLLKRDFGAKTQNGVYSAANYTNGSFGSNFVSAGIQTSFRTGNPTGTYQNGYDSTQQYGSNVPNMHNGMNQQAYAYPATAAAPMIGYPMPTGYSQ
T2 sequence (Q13501 2-440 partner): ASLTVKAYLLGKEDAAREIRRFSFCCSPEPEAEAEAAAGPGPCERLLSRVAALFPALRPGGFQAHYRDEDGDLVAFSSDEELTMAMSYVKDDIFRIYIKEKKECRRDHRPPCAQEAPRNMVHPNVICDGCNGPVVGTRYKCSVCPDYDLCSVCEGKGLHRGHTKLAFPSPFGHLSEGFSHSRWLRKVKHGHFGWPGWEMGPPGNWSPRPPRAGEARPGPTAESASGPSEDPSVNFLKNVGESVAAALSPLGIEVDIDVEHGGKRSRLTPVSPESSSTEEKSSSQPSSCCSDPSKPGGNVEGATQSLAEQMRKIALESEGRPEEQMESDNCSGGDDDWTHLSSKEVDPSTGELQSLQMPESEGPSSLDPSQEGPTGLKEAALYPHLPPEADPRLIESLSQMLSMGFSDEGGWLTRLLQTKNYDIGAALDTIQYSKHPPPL
T2 sequence (P62942 2-108 F37V partner): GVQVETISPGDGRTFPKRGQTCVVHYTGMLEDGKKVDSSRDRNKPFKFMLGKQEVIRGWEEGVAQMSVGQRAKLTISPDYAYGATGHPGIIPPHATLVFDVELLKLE
T3 sequence (P17844 whole entry): as the sequence (P17844 whole entry) above
T3 sequence (P62942 whole entry): as the sequence (P62942 whole entry F37V) above, with V37F counted along it
T4 sequence (Q13501 whole entry): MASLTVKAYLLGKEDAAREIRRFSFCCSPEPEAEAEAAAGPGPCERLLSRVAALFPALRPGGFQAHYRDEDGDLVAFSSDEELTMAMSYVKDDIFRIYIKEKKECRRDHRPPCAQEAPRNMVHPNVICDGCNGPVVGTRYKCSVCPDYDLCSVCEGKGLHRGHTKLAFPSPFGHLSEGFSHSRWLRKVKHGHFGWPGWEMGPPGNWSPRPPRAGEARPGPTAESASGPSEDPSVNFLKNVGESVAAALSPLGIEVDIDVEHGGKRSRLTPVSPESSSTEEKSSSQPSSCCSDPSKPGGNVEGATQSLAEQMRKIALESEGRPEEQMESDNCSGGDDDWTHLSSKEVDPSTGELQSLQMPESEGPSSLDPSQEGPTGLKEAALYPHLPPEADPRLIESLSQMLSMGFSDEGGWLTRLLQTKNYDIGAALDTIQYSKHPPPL
T4 sequence (P62942 whole entry): as the sequence (P62942 whole entry F37V) above, with V37F counted along it

Row | Structure (SMILES) | degradation of GFP-αSyn-FKBP^F36V (GFP fluorescence intensity) (GFP-αSyn-FKBP^F36V; 1 μM) | degradation of GFP-αSyn-FKBP^F36V (GFP fluorescence intensity) (GFP-αSyn-FKBP^F36V; 10 μM) | formation of a droplet containing DDX5 and p62 (DDX5 and p62) | dot-like structure (droplet) containing GFP-FKBP12 and RFP-DDX5 (RFP-DDX5) | dot-like structure (droplet) containing GFP-FKBP12 and RFP-p62 (RFP-p62)
1 | CC[C@H](C(=O)N1CCCC[C@H]1C(=O)O[C@H](CCc1ccc(OC)c(OC)c1)c1cccc(OCC(=O)NCCCOCCOCCOCCCn2cc(-c3nc4c(=O)[nH]c(N)nc4n3Cc3ccc(F)cc3)cn2)c1)c1cc(OC)c(OC)c(OC)c1 [SLF′-AUTAC] | the degradation of GFP-αSyn-FKBP^F36V was observed | the degradation of GFP-αSyn-FKBP^F36V was observed | DDX5 and p62 formed droplets in the cells |  | 
2 | CCC(C)(C)C(=O)C(=O)N1CCCC[C@H]1C(=O)O[C@H](CCc1ccc(OC)c(OC)c1)c1cccc(NC(=O)CCC(=O)NCCCOCCOCCOCCCn2cc(-c3nc4c(=O)[nH]c(N)nc4n3Cc3ccc(F)cc3)cn2)c1 [AUTAC2-2G] |  |  |  | a dot-like structure containing GFP-FKBP12 and RFP-DDX5 | a dot-like structure containing GFP-FKBP12 and RFP-p62 were observed
